In patent US20090123565A9, “Copper-dependent non-traditional pro-inflammatory cytokine export and methods, compositions and kits relating thereto” (Maine Medical Center Research Institute, priority 2001, published 2009):

Experiments:
[1] = test system: balloon-injured rat carotid artery; test: Macrophage infiltration into injured arterial wall (CD11b/MAC1 immunostaining); assay type: in vivo, Sprague-Dawley rats
Description: (§1) In order to address the mechanisms underlying the effect of copper chelation on neointima formation, TTM was administered for 2 weeks before the balloon injury and daily after that until the animals were euthanized at the 4th and 7th day after the procedure. Accordingly, TTM-free animals euthanized 4 and 7 days after the injury were used as controls.
(§2) Macrophage migration was evaluated by immunostaining with the macrophage-specific monoclonal antibody CD11b (MAC1) in acetone/ethanol fixed sections. To quantitate the extent of macrophage invasion, the area occupied by MAC1-positive cells as a percentage of the total area of the neointima was determined. The number of SMCs in the injured artery was counted at day 4, 7 and 14 by the modified method of Prescott et al. Briefly, the cross-sections were subjected to immunohistostaining against α-smooth muscle actin using a commercially available detection system (DAKO) and counter-stained with hematoxylin. The number of nuclei that were accompanied by α-smooth muscle actin-positive cytoplasm was counted at a magnification of ×40 in 10 independent sections from each rat by an observer in a blind manner.

ceruloplasmin = details: cited from earlier work
[2] = test system: balloon-injured rat carotid artery; test: Neointima formation after balloon injury of rat carotid artery (histomorphometry, I/M ratio); assay type: in vivo, Sprague-Dawley rats
Text: Seventy-nine Sprague-Dawley male rats (Charles River Laboratories) weighing 350 to 450 grams, at 12-16 weeks of age, were included in the study. All rats in this study were handled according to the animal welfare regulation of the Maine Medical Center Research Institute, and the study protocol has been approved by the Animal Care and Use Committee of that institution. The rats received humane care in accordance with the animal use principles of the American Society of Physiology. All rats were maintained under identical conditions of temperature (21±1° C.), humidity (60±5%), and light/dark cycle, and had free access to normal rat chow.
To assess the effect of time course of copper chelation in relation to the injury on the neointima formation, 5 additional groups of rats were studied. All of them were treated with TTM for 2 weeks before the injury, and then TTM was withheld as follows: at the day of the injury (n=6) as well as 4 days (n-5), 6 days (n=7), 8 days (n=6), and 10 days (n=6) after the balloon denudation.
Rats were anesthetized with an intraperitoneal injection of ketamine (50 mg/kg) and xylazine (2.2 mg/kg). Angioplasty of the carotid artery was performed with a balloon embolectomy catheter as previously described. Briefly, the balloon catheter (2F Fogarty, Edwards Laboratories) was introduced through the left external carotid artery into the aorta, and the balloon was inflated. The vessel was damaged by passing an inflated balloon through the lumen three times. The catheter was rotated when pulling back. At the time of the final experiment, the animals were euthanized after anesthesia. A midline abdominal incision exposing the distal abdominal aorta was made. After retrograde cannulation of the abdominal aorta at its bifurcation with a 18-gauge intravenous catheter, the arterial tree was cleared of blood by perfusion with 100 ml of PBS (pH 7.2), followed by in vivo fixation with either 4% formaldehyde in phosphate-buffered saline (pH 7.2) or acetone/ethanol solution in 1:1 ratio. The entire left and right carotid arteries were harvested, including the aortic arch, innominate artery and left carotid bifurcation, and further immersed in the respective fixative. The injured left common carotid arteries were cut in three sections at least 4 mm long from the proximal, middle and distal part. From each study group, a part from the untreated contra-lateral right common carotid artery (control) was taken as well. The specimens were then dehydrated through a graded ethanol series, and embedded in paraffin for sectioning. Other arteries were not perfusion-fixed but were removed and immediately frozen. Three different segments of the left carotid artery were used for histological, morphometric, and immunohistochemical studies.
Morphometric analysis of the arterial segment was carried out in a blind manner on cross-sections stained with hematoxylin-eosin. For each animal at least 3 sections originating from the proximal, middle and distal segment of the injured vessel were quantitatively measured. Using a computerized digital microscopic planimetry algorithm (Optimas, Version 5.22), the areas within the external elastic lamina (EEL area), the internal elastic lamina (IEL area), and the luminal area were measured. Other areas were calculated as follows: medial area=EEL area−IEL area; neointimal area=IEL area−luminal area; neointima-to-media (I/M ratio=neointimal area/medial area.

serum ceruloplasmin = test: Serum ceruloplasmin (surrogate marker of free copper) in rats; assay type: in vivo, Sprague-Dawley rats; details: daily 10 mg/kg TTM within 4 weeks
Description: Copper status in mammals treated with TTM cannot be reliably followed by measuring total serum copper level because the chelated copper will still be detected. Serum ceruloplasmin, whose synthesis is directly regulated by the bio-availability of copper to the liver, is a more accurate indicator of free copper and is used as a surrogate marker of free copper status Schosinksy et al., 1974, Clin. Chem. 20:1556-1563. Serum ceruloplasmin was assessed as baseline level before the TTM-treatment, as well as on the day of the injury and on the final day. Blood (0.5 to 1 ml) was obtained from the tail vein after anesthesia was centrifuged for 10 minutes at 2000×G and the serum was frozen at −20° C. until assay. Ceruloplasmin oxidative activity was measured as described previously (Schosinsky et al., 1974, Clin. Chem. 20:1556-1563).

[3] = test system: balloon-injured rat carotid artery; test: Cell proliferation in injured arterial wall (α-smooth muscle actin and PCNA immunostaining); assay type: in vivo, Sprague-Dawley rats
Description: as §1
Proliferating cell nuclear antigen (PCNA) analysis was used to quantify the proliferative activity of cells at the balloon injury sites, and it was performed according to Siitonen et al. Briefly, PCNA-positive cells were counted in the vessel cross sections using a standard light microscope equipped with an ocular reticule (magnification ×10) and a ×40 objective. At least 500 nuclei were counted from each slide. The sections were photographed under low power, the images were video-digitized, and stored in the image analysis system (Qwin Lite 2.2, Leica). Staining results were expressed as percentage of PCNA-immunoreactive cell nuclei. Faint diffuse nuclear staining seen in some tissue sections was not included in the PCNA score.
as §2

[4] = rat, in vivo, 10 mg/kg
Description: A copper chelator, ammonium tetrathiomolybdate (Sigma Aldrich), was administered daily in a dose of 10 mg/kg. The total daily amount was freshly dissolved into 45 ml water and was dispensed to the rats in the drinking water. To assess the effect of copper chelation on neointimal formation after common carotid artery denudation, TTM was given as follows: TTM administration started 2 weeks before the injury in 6 rats; 1 week before the injury in 6 rats; there was no pre-injury treatment with TTM in 5 rats. All those rats were treated with TTM for 2 weeks after the balloon injury. Five rats, which underwent the surgical procedure and were never treated with TTM, served as controls.

[NH4+].[NH4+].[SH-].[SH-].[S]=[Mo]=[S] [TTM, ammonium tetrathiomolybdate]
MAC1 positive cells in controls compared to treated rats ([1]; 4 and 7 days after the injury): marked increase | macrophages in the neointima vs control group ([1]; 4 days after injury): not detectably different | macrophages within the arterial wall ([1]; any time point after the injury (4 and 7 days)): very few macrophages were present | macrophages vs controls ([1]; day 7 after injury): more pronounced in the controls | time to induce copper deficiency (ceruloplasmin; humans, safely): 2-4 weeks | ceruloplasmin reduction to (ceruloplasmin; patients with cancer, withstood for months and years (Brewer et al., 2000)): 20 % of baseline | neointima development, hematoxylin-eosin, vs controls ([2]; 4 days after the injury): no difference | intima/media ratio ([2]; 14 days after balloon injury, TTM 10 mg/kg daily started 1 week before injury, 2 weeks after, n=6, controls 1.76±0.105): 0.96±0.121 | intima/media ratio ([2]; 14 days after balloon injury, TTM 10 mg/kg daily started 2 weeks before injury, 2 weeks after, n=6, controls 1.76±0.105): 0.83±0.006 | intima/media ratio ([2]; 14 days after balloon injury, TTM 10 mg/kg daily started on the day of injury, 2 weeks after, n=5, controls 1.76±0.105): 1.27±0.04 | reduction in the neointima formation in the rat carotid artery ([2]; TTM administration before and after injury, vs controls): up to 53% | intima/media ratio ([2]; TTM started 2 weeks before injury, continued 6 days after): 0.76±0.06 | intima/media ratio ([2]; TTM started 2 weeks before injury, continued 8 days after): 0.83±0.1 | intima/media ratio ([2]; TTM started 2 weeks before injury, continued 10 days after): 0.79±0.013 | intima/media ratio ([2]; TTM started 2 weeks before injury, stopped at the day of the injury): 1.29±0.19 | neointima development, hematoxylin-eosin, vs controls ([2]; day 7 after the injury): more pronounced in the controls | I/M ratio compared to the controls ([2]; each TTM regimen, 14 days after balloon injury (FIG. 6E)): significant decrease | ceruloplasmin reduction to (serum ceruloplasmin): 0-20 % of its baseline level | SMA-positive cells in the neointima vs TTM-free rats ([3]; 7 and 14 days after the injury): significantly less abundant | PCNA-positive cells in the neointimal area ([3]; 14 days after balloon angioplasty, 10 mg/kg, 2 weeks before/2 weeks after injury, n=5, P<0.05): significant reduction | SMA-positive cells in the neointima vs TTM-free rats ([3]; day 4 after the balloon injury): No significant difference | effects upon visual inspection of the animals [4]: without detectable effects
